{
  "source": "patent US8227621B2",
  "about": "“Cyanine dyes and methods of use” (priority 2005, dated 2012)",
  "assay_type_in_all_cases": "biochemical",
  "key": {"[1]": {"target": "human recombinant β-secretase (BACE-1) (Homo sapiens, UniProt P56817)", "sequence (P56817 46-457 limits assumed)": "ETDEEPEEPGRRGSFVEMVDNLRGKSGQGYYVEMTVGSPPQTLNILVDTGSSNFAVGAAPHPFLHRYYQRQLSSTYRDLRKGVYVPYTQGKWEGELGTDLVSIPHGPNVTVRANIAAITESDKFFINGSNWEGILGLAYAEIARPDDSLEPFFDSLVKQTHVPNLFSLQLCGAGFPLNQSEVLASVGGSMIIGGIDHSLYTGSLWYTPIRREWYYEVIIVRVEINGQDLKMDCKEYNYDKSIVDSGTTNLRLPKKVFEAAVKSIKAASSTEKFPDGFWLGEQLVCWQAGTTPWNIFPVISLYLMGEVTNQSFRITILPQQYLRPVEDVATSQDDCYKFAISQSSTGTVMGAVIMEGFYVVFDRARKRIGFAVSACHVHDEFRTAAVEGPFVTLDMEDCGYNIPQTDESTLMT", "assay": "BACE-1 enzyme inhibition assay", "details": "100 nM BACE-1 mixture, 200 nM substrate Structure IV, room temperature 1 hour, Rodbard model", "description": "The BACE-1 assay buffer consists of 50 mM sodium acetate, 10 mM Tris-HCl, 10 mM NaCl, 0.002% Triton X-100, pH adjusted to 4.5. The BACE-1 stop buffer is a 0.8 M sodium phosphate buffer with 0.25 mg/mL BSA (pH 7.8). A characterized BACE-1 inhibitor, β-secretase inhibitor III, is purchased from Calbiochem (CA) (Cat # 565780). […] Two solid-state diode lasers at 680 nm and 780 nm are used as the excitation light sources and their corresponding fluorescence detection is accomplished by two silicon avalanche photodiodes at 710±10 nm and 810±10 nm. […]\nThe serially diluted solutions containing the BACE-1 peptide inhibitor (final concentrations from 0 to 2500 nM) were mixed with BACE-1 in BACE-1 assay buffer (total BACE-1 mixture final concentration of 100 nM) for 15 minutes followed by the addition of the BACE-1 protease substrate having Structure IV in a final concentration 200 nM. […] The fluorescence intensity was measured on Aerius® infrared imaging system (FIG. 22A)."}, "[2]": {"system": "human recombinant β-secretase (BACE-1)", "assay": "BACE-1 enzyme activity assay", "details": "200 nM substrate, 400 nM BACE-1 mixture, 100 minutes", "method": "Purified human recombinant β-secretase (BACE-1) is purchased from Calbiochem (CA). The batch size of 50 μg is supplied as a mixture of the ˜68-70 KDa proenzyme and the ˜65-67 KDa mature enzyme in lyophilized form from sterile-filtered 150 mM NaCl, 50 mM Tris-HCl, pH 7.5. The product is then re-constituted with 100 μL sterile water immediately prior to use.\nThe BACE-1 assay buffer consists of 50 mM sodium acetate, 10 mM Tris-HCl, 10 mM NaCl, 0.002% Triton X-100, pH adjusted to 4.5. […] A characterized BACE-1 inhibitor, β-secretase inhibitor III, is purchased from Calbiochem (CA) (Cat # 565780). […] Two solid-state diode lasers at 680 nm and 780 nm are used as the excitation light sources and their corresponding fluorescence detection is accomplished by two silicon avalanche photodiodes at 710±10 nm and 810±10 nm. […]\nThe effect of enzyme concentration on proteolytic activity of the β-secretase (β-site amyloid precursor protein cleaving enzyme 1; BACE-1), is shown in FIGS. 20A-C. […] The enzymatic reaction was stopped by addition of BACE-1 stop buffer and the fluorescence was recorded by Aerius® infrared imaging system. […] Based on the fluorescence standard curve obtained (FIG. 20B), the degree of hydrolysis of BACE-1 peptide was determined as 53%. With increased amount of hydrolysis, higher fluorescence increase is expected."}, "trypsin": {"system": "trypsin", "assay": "NIR-dye labeled casein protease assay with trypsin", "details": "10 μg/mL aprotinin; 20 nM casein conjugate, 5 μg/mL trypsin", "method": "Casein-NIR Reporter Dye B concentration is 20 nM, trypsin concentration is 5 μg/mL, and aprotinin concentration varies from 10 μg/mL, 5 μg/mL, 1.25 μg/mL, 0.31 μg/mL, 78 ng/mL, 19.5 ng/mL, 4.9 ng/mL, to 1.2 ng/mL. Trypsin was pre-incubated with the inhibitors for 1 hour at 37° C.\nDescribed below is a general method based on the over labeling of casein, with a near-infrared dye, i.e., NIR Reporter Dye B (a NIR-dye labeled casein substrate), for a protease activity microplate assay. The model protease assay uses the labeled casein as the substrate with trypsin as the enzyme, and the fluorescence emission is measured on a LI-COR® Biosciences' Aerius® microplate reader. NIR Reporter Dye B emits at 786 nm, yet it is still a very bright dye (see, FIG. 10).\nThe proteolytic reactions are carried out in 96-well plates with 50 mM TRIS buffer pH 7.8. […] (The reagent […] and its protein labeling and purification protocols are from LI-COR® Biosciences. Casein, trypsin, and aprotinin are all purchased from Sigma-Aldrich. Protein molecular weight markers labeled with a 700 nm fluorescence dye are from LI-COR® Biosciences.) The reactants are incubated at 37° C. for one hour and then stopped by adding aprotinin to 10 μg/mL final concentration. Then, after being spun, the plates are read on an the LI-COR® microplate reader Aerius®. […]"}, "BACE-1 protease enzyme": {"target": "T1, BACE-1 protease enzyme (Homo sapiens, UniProt P56817)", "T1 construct": "purchased Calbiochem", "T1 sequence (P56817 46-457 limits assumed)": "as above", "assay": "Effect of DMSO concentration on BACE-1 enzyme activity", "details": "vs absence of DMSO", "method": "In this experiment, the BACE-1 protease substrate having Structure IV (200 nM), was incubated with various amounts of BACE-1 protease enzyme (0 to 100 nM) and DMSO concentrations (e.g., 0, 2, 5 or 10%) at room temperature for 1 hour. The enzymatic reactions were then terminated upon the addition of stop buffer and the fluorescence intensities were measured on an Aerius® imaging system. The addition of stop buffer further diluted the DMSO concentrations in the reaction solution from 0, 2, 5, 10% DMSO to 0, 0.5, 1.25, 2.5%, respectively. The change in fluorescence intensity observed for the different DMSO concentrations is a reflection of the interference of DMSO on the BACE-1 enzyme activity. […] DMSO concentration increase to 5% and 10%, the BACE-1 enzyme activity decreased 20% and 35% respectively of the original enzyme activity at the absence of DMSO throughout the enzyme concentration range."}, "HIV-1 protease": {"target": "T2, HIV-1 protease (Human immunodeficiency virus type 1 group M subtype B, UniProt P04585)", "T2 construct": "Recombinant HIV-1 protease; purchased BACHEM Biosciences", "assay": "Effect of DMSO and compound interferences on the HIV-1 protease assay", "details": "DMSO 0%, 2.5%, 5% and 10%; 2.5-80 nM protease", "method": "To measure the tolerance of the HIV-1 protease assay to the presence of dimethyl sulfoxide (DMSO), 1 μM of substrate was incubated with 80 nM, 40 nM, 20 nM, 10 nM, 5 nM and 2.5 nM of HIV-1 protease in an assay buffer containing 10%, 5%, 2.5% or 0% DMSO. After incubation at 37° C. for 1.5 hours, the plate was treated with 0.8 M sodium phosphate stop buffer and then scanned on Aerius® System (LI-COR® Biosciences).\nThe robustness of the protease assay was evaluated against fluorescent, color quenching and light scattering interferences, which are the three major sources of compound interferences in high-throughput fluorescent assay screening. In these experiments, protease activity of the HIV-protease assay of the invention was measured in the presence of various amounts of the interference source and compared to that in the absence of the interference.\nFluorescein, a highly fluorescent compound, was chosen as the model fluorescent compound interference source. A series of fluorescein concentrations were mixed with the HIV-1 peptide substrate in the assay buffer system. These wells were then treated either with the enzyme (positive wells) or without the enzyme (negative wells) and incubated at 37° C. for 1 hour."}},
  "note": "Square brackets hold non-standard residues; d marks the D form. Peptide text beside a SMILES is read from it. NIR Reporter Dye A = not defined here; Sta = CC(C)C[C@H](N)[C@@H](O)CC(=O)O; Compound 6 = not defined here",
  "data": [
    {"compound": "CC(C)C[C@H](NC(=O)[C@H](CC(N)=O)NC(=O)[C@@H](NC(=O)[C@@H](N)CCC(=O)O)C(C)C)[C@@H](O)CC(=O)N[C@H](C(=O)N[C@@H](C)C(=O)N[C@@H](CCC(=O)O)C(=O)N[C@@H](Cc1ccccc1)C(N)=O)C(C)C", "note": "[Statine-derived peptide inhibitor, H-Glu-Val-Asn-Statine-Val-Ala-Glu-Phe-NH2] (H-EVN[Sta]VAEF-NH2)", "values": [
      {"measurement": "IC50", "setting": "[1]", "result": 57, "unit": "nM"}
    ]},
    {"compound": "Structure IV: β-secretase (BACE-1) protease substrate peptide conjugated to NIR Reporter Dye A and Compound 6 (SEQ ID NO:5) ({NIR Reporter Dye A}-SEVNLDAEFRK(Compound 6)RR-OH; reading uncertain)", "values": [
      {"measurement": "fluorescence intensity increase over substrate not treated by enzyme", "setting": "[2]; room temperature", "result": 12, "unit": "fold"},
      {"measurement": "degree of hydrolysis of BACE-1 peptide", "setting": "[2]; from fluorescence standard curve", "result": 53, "unit": "%"}
    ]},
    {"compound": "aprotinin", "values": [
      {"measurement": "fluorescence intensity change between total trypsin activity suppression and no inhibition", "setting": "trypsin", "result": "more than 20 fold"}
    ]},
    {"compound": "C[S+](C)[O-]", "note": "[DMSO, dimethyl sulfoxide]", "values": [
      {"measurement": "reduction of BACE-1 protease enzyme activity", "setting": "BACE-1 protease enzyme; DMSO 2%", "result": "≤ 10", "unit": "%"},
      {"measurement": "decrease of BACE-1 enzyme activity", "setting": "BACE-1 protease enzyme; DMSO 5%", "result": 20, "unit": "%"},
      {"measurement": "decrease of BACE-1 enzyme activity", "setting": "BACE-1 protease enzyme; DMSO 10%", "result": 35, "unit": "%"},
      {"measurement": "effect on cleavage of peptide substrate", "setting": "HIV-1 protease", "result": "no significant effect"}
    ]}
  ]
}
